The test has as its system IL-10. Kind of test: Cytokine production from splenocytes, Sac stimulation, IL-10 (ELISA). Type of test: cell-based, murine. As to conditions: 24 h. The protocol: For splenocyte cytokine production assay, 5×10^6 cells per well were inoculated into a 24-well tissue culture plate with ConA (5 mg/L) or Sac (1:10000) stimulation. Different concentrations of Anemonin were added in a final volume of 2 ml. Cells were incubated at 37° C., 5% CO2 for 24 h and supernatants were harvested, IFN-γ, IL-10, IL12 (p40) and IL-2 in supernatants were measured by the sandwich enzyme-linked immunosorbent assay (ELISA) as specified by the manufacturer (BD Bioscience pharmingen, US). Concentrations of the cytokine productions were calculated based on standard curves obtained from serial dilutions of murine cytokines (r IFN-γ, rIL-10, rIL12, rIL-2). As shown in Tables C-3 and C-4, high-dose Anemonin (1-100 μg/ml) inhibited all kinds of cytokine release induced by ConA or Sac.

In the case of `O=C1C=CC2(CCC23C=CC(=O)O3)O1` (stereo not drawn) [Anemonin, anemonin], the “IL-10” value runs as follows: (0.001 μg/ml) 1242 ± 46 pg/mL; (0.01 μg/ml) 1235 ± 19 pg/mL; (0.1 μg/ml) 1229 ± 9 pg/mL; (1 μg/ml) 749 ± 64 pg/mL; (10 μg/ml) 249 ± 0 pg/mL; (100 μg/ml) 274 ± 18 pg/mL.
